ChEMBL document CHEMBL4406813, “2-Amino-2,3-dihydro-1H-indene-5-carboxamide-Based Discoidin Domain Receptor 1 (DDR1) Inhibitors: Design, Synthesis, and in Vivo Antipancreatic Cancer Efficacy” (J Med Chem, 2019)

Columns and labels:
in vivo [1] = settings: Sprague-Dawley, rat, po, 25 mg/kg
in vivo [2] = settings: Sprague-Dawley, rat, iv, 5 mg/kg
in vivo [3] = settings: Sprague-Dawley, rat, iv, 5 mg/kg; remark: listed apart in the source

Cmax (in vivo [1]): 15400 ng/mL | AUC(0-inf) (in vivo [2]): 16900 ng·h/mL | Cmax (in vivo [3]): 14700 ng/mL
Compound: Cc1cn(-c2cc(NC(=O)c3ccc4c(c3)C[C@H](N(C)c3cncnc3)C4)cc(C(F)(F)F)c2)cn1
